Values of other authors in US20180008675A1, “USE OF URODILATING FOR PREPARING A MEDICAMENT FOR TREATMENT OF CARDIOVASCULAR, RENAL, PULMONARY, AND NEURONAL SYNDROMES WHILE AVOIDING A REBOUND” (CARDIORENTIS AG, priority 2010, published 2018).

How the values were obtained:
[1] = tested on: patients with chronic congestive heart failure; settings: 10-hour infusion, 15 ng/kg/min
[2] = tested on: patients with chronic congestive heart failure / acute decompensated heart failure
dogs = dogs (Riegger et al., 1990)

urodilatin
central venous pressure (CVP) ([1]; NYHA III chronic congestive heart failure (Eisner et al., 1995)): increases slightly already after 5 hours of infusion | urine flow ([1]; chronic congestive heart failure (Eisner et al., 1995)): loss of action after 8 hours of infusion | changes of the cardiac index (CI) ([2]; 15 and 30 ng/kg/min (Mitrovic et al., 2006)): significant increase | changes of the baseline in pulmonary capillary wedge pressure (PCWP) ([2]; 15 and 30 ng/kg/min, compared with the placebo group (Mitrovic et al., 2006)): significant reductions | pulmonary capillary wedge pressure (PCWP), loss of effect during infusion ([2]; after 6 to 8 hours of infusion (Mitrovic et al., 2006, FIG. 2A)): slight increase of PCWP | cardiac index (CI), loss of effect during infusion ([2]; after 6 to 8 hours of infusion (Mitrovic et al., 2006, FIG. 2C)): partial drop of CI | symptoms, morbidity and mortality ([2]; all doses, acute decompensated heart failure (Mitrovic et al., 2005 and 2006)): significantly improved | effect compared to other natriuretic peptides, such as ANP (dogs): better effect in dogs
